Data reported in US20160243059A1 (UNIST Academy-Industry Research Corporation, priority 2015, published 2016).
“Also recorded” adds a separate entry of the source.

How the values were obtained:
[1] = tested on: Aβ40/Aβ42; assay: Inhibition of formation of Aβ aggregation (gel electrophoresis/Western blot, TEM); type: biochemical
Description: Aβ40 or Aβ42 was dissolved in ammonium hydroxide (NH4OH, 1% v/v aq), and then, aliquoted, lyophilized overnight, and stored at a temperature of −80° C. For experiments described herein, a stock solution of Aβ was prepared by dissolving lyophilized peptide in 1% NH4OH (10 μL) and diluted with deionized distilled water (ddH2O).
The concentration of Aβ peptides in the solution was determined by measuring the absorbance of the solution at 280 nm (E=1450 M^−1 cm^−1 for Aβ40; and ε=1490 M^−1 cm^−1 for Aβ42).
(§1) The peptide stock solution was diluted to a final concentration of 25 μM in Chelex-treated buffered solution containing [4-(2-hydroxyethyl)-1-piperazine ethane sulfonic acid; […]; pH 6.6 for Cu(II) samples; pH 7.4 for metal-free and Zn(II) samples] (HEPES) and NaCl ([…]).
(§2) The samples from studies on the inhibition of formation of Aβ aggregation and the breakdown of Aβ aggregation were analyzed by gel electrophoresis with Western blotting using an anti-Aβ antibody (6E10).
Each sample (10 μL) was separated on a 10-20% Tris-tricine gel (Invitrogen, Grand island, NY, USA), and the protein samples obtained therefrom were transferred onto a nitrocellulose membrane which was blocked with bovine serum albumin (BSA, 3% w/v, Sigma-Aldrich, St. Louis, Mo., USA) in Tris-buffered saline containing 0.1% Tween-20 (TBS-T; 1.00 mM Tris base, pH 8.0, 1.50 mM NaCl) at room temperature for 2 hours. […]

[2] = target: T1, Aβ40/Aβ42 aggregates (Homo sapiens, UniProt P05067); assay: Breakdown of preformed Aβ aggregation (gel electrophoresis/Western blot, TEM); type: biochemical; details: regardless of presence or absence of metals
T1 construct: Aβ40 and Aβ42 were purchased from AnaSpec (Fremont, Calif., USA); purchased AnaSpec
T1 sequence (P05067 672-713): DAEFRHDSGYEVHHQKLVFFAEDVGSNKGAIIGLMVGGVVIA
Description: as §1, §2
(§3) Each sample (10 μL) was separated on a 10-20% Tris-tricine gel (Invitrogen, Grand island, NY, USA), and the protein samples obtained therefrom were transferred onto a nitrocellulose membrane which was blocked with bovine serum albumin (BSA, 3% w/v, Sigma-Aldrich, St. Louis, Mo., USA) in Tris-buffered saline containing 0.1% Tween-20 (TBS-T; 1.00 mM Tris base, pH 8.0, 1.50 mM NaCl) at room temperature for 2 hours.
(§4) Afterwards, the membranes were incubated with a primary antibody (6E10, Covance, Princeton, N.J., USA; 1:2000) in a solution of 2% w/v BSA (in TBS-T) overnight at 4° C. After washing with TBS-T (three times, each for 10 minutes), the horseradish peroxidase-conjugated goat antimouse secondary antibody (1:5000; Cayman Chemical Company, Ann Arbor, Mich., USA) in 2% w/v BSA (in TBS-T) was added for 1 hour at room temperature. […]

[3] = tested on: Aβ40/Aβ42 aggregates; assay: as above; type: biochemical; details: Aβ preincubated 24 hours at 37° C., then DMPD 50 μM
Description: as §1, §2, §3, §4

[4] = tested on: SK-N-BE(2)-M17 (M17) cell line; assay: Cell viability (MTT) of Aβ40- or metal-Aβ40-treated M17 cells; type: cell-based, human; details: Aβ:metal:ligand 10:10:20 μM, 24 hours, relative to the untreated cells
Description: The human neuroblastoma, i.e., SK-N-BE(2)-M17 (M17) cell line, was purchased from the American Type Culture Collection (ATCC, Manassas, Va., USA).
The cell line was maintained in media containing Minimum Essential Media (MEM; GIBCO, Life Technologies, Grand Island, N.Y., USA) and Ham's F12K Kaighn's Modification Media (F12K; GIBCO) at a ratio of 1:1, 10% (v/v) fetal bovine serum (FBS; Atlanta Biologicals, Flowery Branch, Ga., USA), 100 U/mL penicillin (GIBCO), and […] streptomycin (GIBCO). The cells were grown and maintained at a temperature of 37° C. in a humidified atmosphere with 5% CO2.
After completing the incubation at a temperature of 37° C. for 24 hours, 25 μL of [3-(4,5-dimethylthiazol-2-yl)-2,5-diphenyltetrazolium bromide; 5 mg/mL in phosphate buffered saline (PBS), pH7.4, GIBCO] (MTT) was added to each well, and then, the plates were incubated at a temperature of 37° C. for 4 hours.
Formazan produced by the cells was dissolved in a solution containing N,N-dimethylformamide (DMF, 50% v/v aq, pH 4.5) and sodium dodecyl sulfate (SDS, 20% w/v) overnight at room temperature. Subsequently, absorbance at 600 nm was measured on a microplate reader.

[5] = target: T2, Aβ40 (Homo sapiens, UniProt P05067); assay: Isothermal titration calorimetry (ITC); type: binding
T2 construct: Aβ40 and Aβ42 were purchased from AnaSpec (Fremont, Calif., USA); purchased AnaSpec
T2 sequence (P05067 672-711 limits assumed): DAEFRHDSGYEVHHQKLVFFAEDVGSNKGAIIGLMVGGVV
Description: The ligand solution (10 μL) was titrated into the Aβ40 solution (1.4 mL) at 25° C. over 1 second with 25 injections with a constant interval of […] a 250 μL syringe rotating at 310 rpm. In a control experiment, the identical titrant solution was injected into the same buffer used with Aβ40 to measure the heat of dilution.
A reasonable heat of binding value was calculated by subtracting the heat of dilution value from the overall heat change. Titration data were analyzed with the MicroCal Origin (v. 7.0). The values of Ka (association constant) and […] each ligand upon binding to Aβ40 was determined from a proper fitting model. The binding curves were best fit to a sequential binding model with three binding sites. The values of −TΔS and ΔG were calculated from the Gibb's free energy relationship [(ΔG=ΔH−TΔS; ΔG=−RT ln(Ka)].

[6] = target: T3, Cu(II)-loaded Aβ42 fibrils (Homo sapiens, UniProt P05067); assay: Cu K-edge X-ray absorption spectroscopy; details: DMPD 2 equivalents, 24 hours, anaerobic
T3 construct: Aβ40 and Aβ42 were purchased from AnaSpec (Fremont, Calif., USA); purchased AnaSpec
T3 sequence (P05067 672-713 limits assumed): as the sequence (P05067 672-713) above
Description: Aβ42 was monomerized according to the methods previously described (Biochemistry 44, 5478-5487, 2005; J. Am. Chem. Soc. 126, 13534-13538, 2004), and fibrils of Aβ42 were grown according to protocols known in the art (Biochemistry, 47, 5006-5016, 2008). Following monomerizatino of fibrillization, all samples were treated under an anaerobic atmosphere (N2) in a COY anaerobic chamber (COY Laboratory, Grass Lake, Mich., USA).
Aβ42 was dissolved in a mixture of 10 mM of N-ethylmorpholine buffer (pH 7.4) and glycerol (used as a deicing agent) that were mixed at a ratio of 4:1, and then, an equivalent amount of CuCl2 was added thereto. Aβ42 monomers were maintained at 5° C., and all procedures performed rapidly to avoid aggregation. […]
Following the reaction with DMPD, the solutions were injected into Lucite sample holders with Kapton tape windows, and then, quickly frozen in liquid nitrogen. All data were recorded on beamline X-3b at the National Synchrotron Light Source (Brookhaven National Laboratories, Upton, N.Y., USA). […]
Data were collected as fluorescence spectra using a Canberra 31 element Ge solid-state detector with a 3 micron Ni filter placed between the sample and detector, and calibrated against a simultaneously collected spectrum of Cu-foil (first inflection point 8980.3 eV). […]

[7] = target: T2, Aβ40; assay: Mass spectrometry and IM-MS of Aβ40-ligand complexes; type: binding
Description: The resulting solutions were allowed to react for 0, 2, 4, 8, and 24 hours at a temperature of 37° C. The samples were directly injected into the mass spectrometer at a flow rate of […]. ESI interface was operated in positive-ion mode; spray voltage was set at 4.5 kV with capillary temperature at 300° C. and capillary exit voltage at 101 V. Mass spectra were taken in the range of m/z 50 to 500.
All ion mobility-mass spectrometry (IM-MS) experiments were carried out on a Synapt G2 (Waters, Milford, Mass., USA). Samples were ionized using a nano-electrospray source operated in positive ion mode. MS instrumentation was operated at a backing pressure of 2.7 mbar and a sample cone voltage of 40 V. Data were analyzed using MassLynx 4.1 and DriftScope 2.0 (Waters, Milford, Mass., USA). Collision cross-section (CCS) measurements were calibrated externally using a database of known protein, and protein complex CCS values in helium. Lyophilized Aβ40 peptides (AnaSpec, Fremont, Calif., USA) were prepared to a stock concentration of 25 μM in 1 mM ammonium acetate (pH 7.0). […] After the reaction, all samples were lyophilized overnight prior to re-suspension of the samples in hexafluoro-2-propanol (HFIP, Sigma-Aldrich, St Louis, Mo., USA)([Aβ40]=50 μM) and sonicated under pulse settings for 5 minutes. The samples were diluted 50%, to a final Aβ40 concentration of 25 μM, using 1 mM ammonium acetate (0.5 mM final concentration) immediately prior to mass analysis.

[8] = tested on: Aβ40; assay: Cerebral Aβ40 by ELISA in 5×FAD mice; type: in vivo, mouse; details: 1 mg/kg/day intraperitoneal, 30 days
Excerpt: (§5) 5×FAD mice were selected for this study since they develop early and severe phenotypes of AD and behavioral dysfunction.
(§6) Cerebral Aβ peptides were quantified by the enzyme-linked immunosorbent assay (ELISA).

[9] = tested on: Aβ42; assay: Cerebral Aβ42 by ELISA in 5×FAD mice; type: in vivo, mouse; details: 1 mg/kg/day intraperitoneal, 30 days
Excerpt: as §5, §6

[10] = tested on: amyloid plaques; assay: Histopathological evaluation of amyloid deposition load in 5×FAD mice; type: in vivo, mouse; details: 1 mg/kg/day intraperitoneal, 30 days
Excerpt: as §5

[11] = tested on: 5×FAD mice; assay: Morris water maze test in 5×FAD mice; type: in vivo, mouse
Description: Three hours after the final Morris water maze test, to confirm the performance of long-term memory retention, the probe trials, where the escape platform was removed, was carried out, and the mice located its previous position in the water for 60 seconds.

[12] = Gross appearance and body weight of 5×FAD mice; type: in vivo, mouse; details: at conclusion of 30-day treatment, 1 mg/kg/day intraperitoneal
Excerpt: as §5

[13] = sequential binding model, three sites, 25° C., pH 7.4
[14] = probe trial 60 seconds, three hours after final test, vs vehicle-treated 5×FAD mice

SMILES: CN(C)c1ccc(N)cc1 [DMPD, N,N-dimethyl-p-phenylenediamine]
- effect on formation of metal-free or metal-induced Aβ aggregates ([1]; DMPD 50 μM, Aβ 25 μM, with or without CuCl2/ZnCl2 25 μM, 37° C., 24 hours, aerobic): inhibited the formation of Aβ aggregates
- modulation of Aβ aggregation under anaerobic condition ([1]; anaerobic condition): not observed
- reactivity toward Aβ42 aggregates [2]: less reactivity toward Aβ42 aggregates
- transformation of preformed metal-free and metal-Aβ40/Aβ42 aggregates [3]: significant effects on the transformation; also recorded: modified the formed Aβ aggregates to relatively smaller and less structured Aβ aggregates
- increase of viability [4]: 10-20%
- TΔS1 ([5]; calculated, ΔG=ΔH−TΔS): 6.81 ± 0.201 kcal/mol
- TΔS2 ([5]; calculated, ΔG=ΔH−TΔS): 7.48 ± 0.0884 kcal/mol
- TΔS3 ([5]; calculated, ΔG=ΔH−TΔS): -2.13 ± 0.155 kcal/mol
- ΔG1 ([5]; calculated, ΔG=−RT ln(Ka)): -7.43 ± 0.184 kcal/mol
- ΔG2 ([5]; calculated, ΔG=−RT ln(Ka)): -6.33 ± 0.0382 kcal/mol
- ΔH1 ([5]; sequential binding model, site 1): -0.629 ± 0.0837 kcal/mol
- ΔH2 ([5]; sequential binding model, site 2): 1.14 ± 0.801 kcal/mol
- ΔH3 ([5]; sequential binding model, site 3): -8.37 ± 1.52 kcal/mol
- Ka1 [5, 13]: 2.85 ± 0.88 × 10^5 M^−1
- Ka2 [5, 13]: 4.34 ± 2.88 × 10^4 M^−1
- Ka3 [5, 13]: 3.73 ± 2.22 × 10^4 M^−1
- effect on Cu(II) in Cu(II)-loaded Aβ42 fibrils [6]: complete reduction of Cu(II)
- ion mobility arrival time of Aβ40 complex versus apo state ([7]; IM-MS, 4+ charge state): significantly decreased
- reduction of FA-soluble Aβ40 [8]: ca. 50%
- reduction of SDS-soluble Aβ40 [8]: ca. 68%
- decrease of total level of Aβ40 (PBS-, SDS- and FA-soluble) ([8]; vs vehicle-treated): ca. 65%
- reduction of FA-soluble Aβ42 [9]: ~32%
- reduction of SDS-soluble Aβ42 [9]: ~67%
- decrease of total level of Aβ42 (PBS-, SDS- and FA-soluble) ([9]; vs vehicle-treated): ~47%
- reduction of load of APP/Aβ-immunoreactive 4G8-stained amyloid plaques [10]: ca. 23%
- reduction of load of Congo red-stained amyloid plaques [10]: ~20%
- spatial learning and memory capability ([11]; final five days of DMPD treatment, hidden platform): prominently improved
- time in the target quadrant (NW) in probe trial [11, 14]: significantly more time
- time to reach the platform area in probe trial [11, 14]: distinguishably less time
- gross appearance or body weight versus vehicle-treated mice [12]: no significant difference

SMILES: O=C1C=CC(=O)C=C1 [BQ, benzoquinone]
- binding to Aβ40 (MS) ([7]; identical conditions as DMPD): binds to Aβ40
- mass added to Aβ40 on ligand treatment (mass shift) ([7]; ligand 50 μM, Aβ40 25 μM, 24 hours): 104.1±0.1 Da
